# Patent US9642865B2, “Angiogenesis inhibitors” (THE JOHNS HOPKINS UNIVERSITY, priority 2004, dated 2017)
# How the values were obtained:
# [1] = tested on: human umbilical vein endothelial cells (HUVEC); experiment: HUVEC proliferation, [3H]-thymidine incorporation; type: cell-based; details: guanine 10 μM and 20 μM
# Experimental: (§1) 32,000 FDA drug approvals obtained by Freedom of Information Act requests were condensed to 3,400 unique drug formulations. Drugs were purchased from Sigma, Spectrum Chemicals, MP Biomedicals, The Johns Hopkins Hospital pharmacy, Biomol, and Tocris. 10 mM stock solutions were made using DMSO, water, or ethanol as solvents. Drugs were arrayed in 96-well plates and screened at a final concentration of 10 μM. Cells were incubated with drug for 36 h and proliferation was measured by pulsing with 1 μCi [^3H]-thymidine for 8 h followed by absorption onto glass filters and scintillation counting.
# (§2) IC50 measurements were carried out in triplicate, and analyzed using four parameter logarithmic analysis. Values are presented+/−the standard error of the mean. P-values were calculated using the Student's T-test.
# A library of 1,850 FDA-approved drugs and 600 drugs that entered the clinic via approval in a foreign country or phase II clinical trials was created. To discover new angiogenesis inhibitors among known drugs, the library was screened for inhibition of human umbilical vein endothelial cells (HUVEC) using [^3H]-thymidine incorporation. […] After eliminating known cytotoxic drugs such as taxol and colchicine or drugs that are restricted to topical use, several drugs remained. […]
# [2] = tested on: Jurkat T cells; experiment: Jurkat T-cell proliferation, [3H]-thymidine incorporation; type: cell-based
# Experimental: as §1, §2
# MPA is an immunosuppressive drug widely used to prevent rejection of transplanted organs (Lipsky, J. J. (1996) Lancet 348, 1357-1359). The mechanism of action in the immune system is well established-MPA inhibits de novo biosynthesis of purines in T and B lymphocytes (Allison, A. C. & Eugui, E. M. (2000) Immunopharmacology 47, 85-118). […] Thus, a comparison of HUVEC to Jurkat T cells for sensitivity to MPA in the presence and absence of guanine was carried out. […] Addition of guanine at or above 20 μM rendered Jurkat T cells resistant to MPA. […]
# [3] = tested on: HUVEC; experiment: Cell cycle analysis of HUVEC; type: cell-based, human; details: 1 μM MPA + 50 μM guanosine
# Source text: It has been shown that MPA causes cell cycle arrest in activated T and B lymphocytes at G1 (Laliberte, J., Yee, A., Xiong, Y. & Mitchell, B. S. (1998) Blood 91, 2896-2904). Therefore, the effect of MPA on endothelial cell cycle progression was examined.
compound,measurement,setting,value
"COc1c(C)c2c(c(O)c1C/C=C(\C)CCC(=O)O)C(=O)OC2 [MPA, 6-(4-hydroxy-6-methoxy-7-methyl-3-oxo-1,3-dihydroisobenzofuran-5-yl)-4-methyl-hex-4-enoic acid]",effect of exogenous guanine on MPA inhibition of HUVEC proliferation,[1],partially reversed
same,effect of exogenous guanine on MPA inhibition of Jurkat T-cell proliferation,[2]; guanine 10 μM,unaffected
same,effect of exogenous guanine on MPA inhibition of Jurkat T-cell proliferation,[2]; guanine 20 μM and 50 μM,completely reversed
same,effect of guanosine on the cell cycle effect of MPA,[3],completely reversed
